Data on 16 compounds can be found in paper PMC8936499, “Cytochrome P450 168A1 from Pseudomonas aeruginosa is involved in the hydroxylation of biologically relevant fatty acids” (PLoS ONE, 2022).

The structures appear in SMILES notation. Where two headings read alike, the source gives them in different places. Marks after values point to notes of the source that are not given here.

Data set [1] deals with T1, CYP168A1 (Pseudomonas aeruginosa, UniProt Q9I107). Briefly: Fatty acid binding studies (spectral titration, type I difference spectra). The conditions noted are these: for Low- to high-spin state change (%): from ΔAmax; for Kd: read-out: Ks, mean of four replicates ± SD. As to the method: The absorbance difference spectra from 500 nm to 350 nm were determined after each incremental addition of fatty acid. Ligand saturation curves were constructed from the change in absorbance (ΔApeak-trough) against fatty acid concentration. The dissociation constant for the fatty acid-CYP168A1 complex (Ks) was determined by nonlinear regression (Levenberg-Marquardt algorithm) using a rearrangement of the Morrison equation [14] and the Michaelis-Menten equation. […]. All fatty acid binding experiments were undertaken in quadruplicate.
In between ligand binding determinations, the quartz cuvettes were washed with deionized water and then soaked for 30 min in 2-propanol at room temperature to desorb any residual fatty acids from the cuvette surfaces, followed by rinsing a further three-times with 2-propanol and then deionized water prior to drying.

Data set [2] deals with CYP168A1. As to conditions: cited from earlier work.
In data set [3] the test system is CYP168A1. The conditions noted are these: cited from earlier work. This is another data set of the same source.
In data set [4] the target is T1, CYP168A1. It is filed as biochemical. As to conditions: 0.5% DMF in the CYP168A1 assay system. As for the experimental part:
Assay mixtures were incubated at 37°C for 5 min prior to initiation with 4 mM β-NADPH-Na4 and then incubated for a further 2.5 hours at the same temperature. Fatty acids and their hydroxylated products were recovered by extraction with dichloromethane and dried in a vacuum centrifuge. TMS derivatisation of the samples and analysis by GCMS were performed as previously described. Percentage product formation was calculated from the GC peak areas of the fatty acid and the hydroxylated metabolites, with compound identities confirmed by mass fragmentation patterns of fatty acid standards.
Control assays contained no azole, but an equivalent volume of DMF. Experiments were undertaken in duplicate.

In data set [5] the target is T1, CYP168A1. As to conditions: for Turnover no., ω-1- carbon hydroxylated / % Product, ω-1- carbon hydroxylated / Turnover no., ω-2- carbon hydroxylated / % Product, ω-2- carbon hydroxylated: 100 μM substrate, mean of two replicates ± standard error; for Turnover no., ω-1- carbon hydroxylated / Turnover no., ω-2- carbon hydroxylated: 0.25 μM CYP168A1, 37°C; for % Product, ω-1- carbon hydroxylated / % Product, ω-2- carbon hydroxylated: 0.25 μM CYP168A1, 2.5 h at 37°C; for hydroxylation rate at both the ω-1- and ω-2-positions (total): sum of ω-1 and ω-2 turnover.

The test system of data set [6] is CYP168A1. The conditions noted are these: comparison with ref 40.
Data set [7] has as its target T1, CYP168A1. As to conditions: 50 μM substrate, 2 μM CYP168A1, 3 hours at 37°C.
Data set [8] has as its system CYP168A1. Details: method as in PMID 35085556. The conditions noted are these: arachidonic acid as substrate, CYP168A1:ketoconazole ratio 5μM:10μM; cited from earlier work.
Data set [9] has as its system Streptomyces peucetius CYP147F1. Details: method as in PMID 24055535. As to conditions: cited from earlier work.
Data set [10] concerns Candida albicans CYP51. Details: method as in PMID 23274672, PMID 20625155. The conditions noted are these: cited from earlier work.
Data set [11] concerns the target T1, CYP168A1. Briefly: Azole binding studies (spectral titration, type II difference spectra). As to conditions: read-out: apparent dissociation constant (Kd) of azole-CYP168A1 complex; 2 μM CYP168A1, rearranged Morrison equation, duplicate.
Where [12] appears, read: 5 μM CYP168A1, cuvette path length 10 mm.
Setting [13] is: 5 μM CYP168A1, path length 10 mm.
Setting [14] is: 5 μM CYP168A1, 0.1 M Tris-HCl pH 8.1, room temperature, rearranged Morrison equation.

T1 sequence (Q9I107 entry or part of it): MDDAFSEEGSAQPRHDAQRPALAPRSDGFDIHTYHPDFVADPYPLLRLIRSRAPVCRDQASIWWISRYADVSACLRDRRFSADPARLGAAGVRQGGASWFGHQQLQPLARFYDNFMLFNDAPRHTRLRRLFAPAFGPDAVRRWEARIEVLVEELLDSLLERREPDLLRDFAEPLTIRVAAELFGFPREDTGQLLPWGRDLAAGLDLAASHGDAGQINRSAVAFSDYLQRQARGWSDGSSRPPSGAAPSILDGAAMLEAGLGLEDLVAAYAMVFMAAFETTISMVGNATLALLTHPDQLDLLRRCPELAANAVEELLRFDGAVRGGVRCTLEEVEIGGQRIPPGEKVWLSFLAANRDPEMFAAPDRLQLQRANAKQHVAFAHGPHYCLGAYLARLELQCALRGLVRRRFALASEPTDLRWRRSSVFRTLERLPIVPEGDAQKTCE

Regarding `CCCCC/C=C\C/C=C\C/C=C\C/C=C\CCCC(=O)O` [Arachidonic acid, arachidonic acid], in [1], the “Ks value, fold larger than stearic acid” value turned out to be 9000 fold. Moreover, the “fold-difference in apparent Ks values compared to stearic and linoleic acids” value (from here on “fold-difference in apparent Ks values”) in data set [1] was around 9160 fold. In addition, the ΔAmax in [1] (5 μM CYP168A1, cuvette path length 4.5 mm) is 0.071 ±0.009 ^b. Also, the “Ks in this study, fold higher than recently reported” value in data set [1] (compared with ref 28) is recorded as “over 400 fold”. For the same compound, the “Low- to high-spin state change (%)” value in [1] (5 μM CYP168A1, path length 4.5 mm) is listed as 31.6 ±4.0 ^b %; in [1] (5 μM CYP168A1, path length 4.5 mm, listed as arachidonic acid), 32%. Moreover, the Kd in data set [1] (5 μM CYP168A1, Michaelis-Menten equation, saturation not achieved at 660 μM) was 458000 ± 87000 nM; in data set [1] (5 μM CYP168A1, Michaelis-Menten equation, saturation not achieved at 660 μM, listed as arachidonic acid), around 460000 nM; in data set [2] it was 960 nM. Also, the CYP168A1 turnover number in data set [3] is 0.222 min⁻¹.

Take `CN(C)C=O` [DMF, dimethylformamide]: the “reduction in oleic acid turnover” value in data set [4] stood at 10 fold.

Take `CCCCC/C=C\C/C=C\CCCCCCCC(=O)O` [Linoleic acid, linoleic acid]: the ΔAmax in [1] (setting [12]) is reported as 0.142 ±0.013. For the same compound, the “Low- to high-spin state change (%)” value is 28.3 ±2.6% in data set [1] (setting [13]) and 28% in data set [1] (5 μM CYP168A1, path length 10 mm, listed as linoleic acid). Also, the Kd in data set [1] (setting [14]) was below 50 nM. Also, the “Turnover no., ω-1- carbon hydroxylated” value was determined as 0.35 ± 0.03 min⁻¹ in data set [5] and 0.35 min⁻¹ in [5] (listed as linoleic acid). Moreover, in [5], the “% Product, ω-1- carbon hydroxylated” value stood at 14 ± 1.3%.

For the compound `CCCCCCCCCCCCCC(=O)O` [Myristic acid, myristic acid], the “fold-difference in apparent Ks values” value in [1] is listed as around 5 fold. Moreover, the “Low- to high-spin state change (%)” value in [1] (setting [13]) is 22.8 ±1.6%. Also, the “Low- to high-spin state change (%)” value in [1] (5 μM CYP168A1, path length 10 mm, listed as myristic acid) is 23%. The Kd in data set [1] (setting [14]) was 249 ± 103 nM. The Kd in data set [1] (5 μM CYP168A1, 0.1 M Tris-HCl pH 8.1, room temperature, rearranged Morrison equation, listed as myristic acid) amounted to 250 nM. In data set [5], the “catalytic turnover, fold lower than palmitic acid” value is on record as 5.3 fold; the “fold less ω-1-hydroxy product formed than with palmitic acid as substrate” value is reported as 4.7 fold; the “fold less ω-2-hydroxy product formed than with palmitic acid as substrate” value worked out at 10.3 fold; the “Turnover no., ω-1- carbon hydroxylated” value is 0.27 ± 0.02 min⁻¹. In addition, in data set [5], the “Turnover no., ω-2- carbon hydroxylated” value was 0.033 ± 0.001 min⁻¹; the “% Product, ω-1- carbon hydroxylated” value is on record as 11 ± 0.6%; the “% Product, ω-2- carbon hydroxylated” value turned out to be 1.3 ± 0.03%; the “hydroxylation rate at both the ω-1- and ω-2-positions (total)” value (“hydroxylation rate” below) stood at 0.30 min⁻¹.

In [1] (setting [12]), `CCCCCCCC/C=C\CCCCCCCC(=O)O` [Oleic acid, oleic acid] gave a ΔAmax of 0.277 ±0.014. In addition, the “Low- to high-spin state change (%)” value amounted to 55.4 ±2.8% in data set [1] (setting [13]) and 55% in [1] (5 μM CYP168A1, path length 10 mm, listed as oleic acid). Also, the Kd in data set [1] (setting [14]) was 142 ± 12 nM; in data set [1] (5 μM CYP168A1, 0.1 M Tris-HCl pH 8.1, room temperature, rearranged Morrison equation, listed as oleic acid), around 150 nM. The “% Product, ω-1- carbon hydroxylated” value in data set [5] is reported as 49 ± 1.2%.

Regarding `CCCCCCCCCCCCCCCC(=O)O` [Palmitic acid, palmitic acid], the “fold-difference in apparent Ks values” value in [1] is listed as around 2 fold. For the same compound, the ΔAmax in data set [1] (setting [12]) is given as 0.290 ±0.015. In [1] (setting [13]), the “Low- to high-spin state change (%)” value is given as 58.1 ±3.0%. For the same compound, the “Low- to high-spin state change (%)” value in data set [1] (5 μM CYP168A1, path length 10 mm, listed as palmitic acid) was determined as 58%. Further, in data set [1] (setting [14]), the Kd is 117 ± 56 nM. The Kd in [1] (5 μM CYP168A1, 0.1 M Tris-HCl pH 8.1, room temperature, rearranged Morrison equation, listed as palmitic acid) was 120 nM. In [5], the “Turnover no., ω-1- carbon hydroxylated” value came to 1.27 ± 0.10 min⁻¹; the “Turnover no., ω-2- carbon hydroxylated” value is 0.34 ± 0.10 min⁻¹; the “% Product, ω-1- carbon hydroxylated” value was 49 ± 3.8%; the “% Product, ω-2- carbon hydroxylated” value was 13 ± 4.0%. For the same compound, the “hydroxylation rate” value in data set [5] worked out at 1.61 min⁻¹. In data set [5] (listed as palmitic acid), the “Turnover no., ω-1- carbon hydroxylated” value was determined as 1.27 min⁻¹ and the “Turnover no., ω-2- carbon hydroxylated” value came to 0.34 min⁻¹. Moreover, in data set [6], the “turnover, fold greater than observed with Mycobacterium tuberculosis CYP124” value was 23 fold.

On to `CCCCCC/C=C\CCCCCCCC(=O)O` [Palmitoleic acid, palmitoleic acid], for which the “fold-difference in apparent Ks values” value in [1] is recorded as around 3 fold. Moreover, the ΔAmax in data set [1] (setting [12]) was found to be 0.185 ±0.006. Besides, the “Low- to high-spin state change (%)” value amounted to 37.0 ±1.2% in data set [1] (setting [13]) and 37% in data set [1] (5 μM CYP168A1, path length 10 mm, listed as palmitoleic acid). Also, the Kd is 155 ± 83 nM in [1] (setting [14]) and around 150 nM in data set [1] (5 μM CYP168A1, 0.1 M Tris-HCl pH 8.1, room temperature, rearranged Morrison equation, listed as palmitoleic acid). The “Turnover no., ω-1- carbon hydroxylated” value was found to be 0.38 ± 0.06 min⁻¹ in data set [5] and 0.38 min⁻¹ in data set [5] (listed as palmitoleic acid). In addition, in [5], the “% Product, ω-1- carbon hydroxylated” value was 15 ± 2.4%.

On to `CCCCCCCCCCCCCCCCCC(=O)O` [Stearic acid, stearic acid], for which the ΔAmax in data set [1] (setting [12]) is reported as 0.328 ±0.020. Moreover, the “Ks in this study, fold lower than recently reported” value in data set [1] (compared with ref 28) is “over 6 fold”. For the same compound, the “Low- to high-spin state change (%)” value in data set [1] (setting [13]) was determined as 65.6 ±4.1%. The “Low- to high-spin state change (%)” value in data set [1] (5 μM CYP168A1, path length 10 mm, listed as stearic acid) amounted to 66%. The Kd in data set [1] (setting [14]) is below 50 nM. For the same compound, in [5], the “catalytic turnover, fold greater than that for linoleic acid” value was 3.5 fold; the “fold less ω-1-hydroxy product formed than with palmitic acid as substrate” value is listed as 1.2 fold; the “fold less ω-2-hydroxy product formed than with palmitic acid as substrate” value turned out to be 2 fold; the “Turnover no., ω-1- carbon hydroxylated” value turned out to be 1.07 ± 0.09 min⁻¹. For the same compound, in data set [5], the “Turnover no., ω-2- carbon hydroxylated” value came out at 0.17 ± 0.01 min⁻¹; the “% Product, ω-1- carbon hydroxylated” value is 41 ± 2.9%; the “% Product, ω-2- carbon hydroxylated” value is given as 6.6 ± 0.5%; the “hydroxylation rate” value came to 1.24 min⁻¹. The Kd in data set [2] (read-out: Ks reported for P. aeruginosa CYP168A1) is 327 nM.

Consider `CC(C)CCC[C@@H](C)[C@H]1CC[C@H]2[C@@H]3CCC4=CC(=O)CC[C@]4(C)[C@H]3CC[C@]12C` [cholesta-4-ene-3-one], for which the oxygenated products formed entry in [7] was “no oxygenated products”.

As to `CC(C)CCC[C@@H](C)[C@H]1CC[C@H]2[C@@H]3CC=C4C[C@@H](O)CC[C@]4(C)[C@H]3CC[C@]12C` [cholesterol], in data set [7], the oxygenated products formed result is “no oxygenated products”.

Turning to `CC(=O)N1CCN(c2ccc(OCC3COC(Cn4ccnc4)(c4ccc(Cl)cc4Cl)O3)cc2)CC1` (stereo not drawn) [ketoconazole], the “reduction in enzyme activity” value in data set [8] is around 70%.

Consider `CCCCCCCCCCCC(=O)O` [lauric acid], for which the “enzyme molecules undergoing low- to high-spin state transition” value in [9] is given as 95%. In data set [3], the “CYP168A1 Km, fold higher than the Ks value” is 25 fold and the CYP168A1 turnover number was 0.138 min⁻¹.

As to `Clc1ccc(COC(Cn2ccnc2)c2ccc(Cl)cc2Cl)c(Cl)c1` (stereo not drawn) [miconazole], the Kd was 26 nM in [10] and 190 ± 60 nM in data set [11].

Consider `CC(C)(C)C(O)(CCc1ccc(Cl)cc1)Cn1cncn1` (stereo not drawn) [tebuconazole], for which the values for the Kd in data set [10] and in data set [11] were 36 nM and 180 ± 10 nM, respectively.

Turning to `C[C@]12CC[C@H]3[C@@H](CCC4=CC(=O)CC[C@@]43C)[C@@H]1CC[C@@H]2O` [testosterone], in [7], the oxygenated products formed entry is “no oxygenated products”.

Turning to `C[C@@H](c1ncncc1F)[C@](O)(Cn1cncn1)c1ccc(F)cc1F` [voriconazole], the values for the Kd in data set [10] and in [11] were 10 nM and 2050 ± 540 nM, respectively.
